Reference: US20240050449A1, “Use of Acetyltanshinone IIA in Preparation of Medicament for Treating Lung Cancer and Medicament for Treating Lung Cancer” (UNIVERSITY OF MACAU, priority 2022, published 2024)

What was measured:
A549 and H1650 cells = assay: Protein synthesis rate (click-iT HPG Alexa Fluor 594 Protein Synthesis Assay Kit); assay type: cell-based; conditions: 2 μM, 48 h
Procedure: In FIG. 3 (A) is protein levels of p-Akt, Akt, p-mTOR, mTOR, p-p70S6K, p70S6K, p-S6RP, and S6RP determined by Western blot analysis for A549, H358, H1975, and H1650 cells treated with ATA (1 or 2 μM) for 48 h. (B) is A549 and H1650 cells treated with ATA (1 or 2 μM) or the protein synthesis inhibitor […] (CHX, 35 μM), respectively, for 48 h. The rate of protein synthesis was determined using the click-iT™ HPG Alexa Fluor™ 594 Protein Synthesis Assay Kit. The intensity of Texas Red fluorescence in the stained image represents the rate of protein synthesis. Quantification of the rate of protein synthesis is shown. ****P<0.0001 was based on a one-way analysis of variance followed by Tukey's multiple comparison test. Scale bar, 50 μm. […] Protein levels of p-p70S6K. p70S6K. p-S6RP, and S6RP were determined by Western blot analysis. […] The rate of protein synthesis was determined using the click-iT™ HPG Alexa Fluor™ 594 Protein Synthesis Assay Kit. The intensity of Texas Red fluorescence in the stained image represents the rate of protein synthesis. Quantification of the rate of protein synthesis is shown. *P<0.05 and **P<0.01 were based on a one-way analysis of variance followed by Tukey's multiple comparison test. […] Protein levels of p70S6K. p-p70S6K, S6RP, and p-S6RP were determined by Western blot analysis. […] Data are expressed as the mean±SD of three independent experiments.

p70S6K = target: T1, p70S6K (Homo sapiens, UniProt P23443); assay: Western blot, p70S6K protein levels in drug-resistant NSCLC cells; assay type: cell-based; conditions: A549 and H1650 cells, 2 μM, 48 h
T1 construct: endogenous in cells; host or cells: A549, H358, H1975, H1650 for the Western blots
T1 sequence (P23443 whole entry): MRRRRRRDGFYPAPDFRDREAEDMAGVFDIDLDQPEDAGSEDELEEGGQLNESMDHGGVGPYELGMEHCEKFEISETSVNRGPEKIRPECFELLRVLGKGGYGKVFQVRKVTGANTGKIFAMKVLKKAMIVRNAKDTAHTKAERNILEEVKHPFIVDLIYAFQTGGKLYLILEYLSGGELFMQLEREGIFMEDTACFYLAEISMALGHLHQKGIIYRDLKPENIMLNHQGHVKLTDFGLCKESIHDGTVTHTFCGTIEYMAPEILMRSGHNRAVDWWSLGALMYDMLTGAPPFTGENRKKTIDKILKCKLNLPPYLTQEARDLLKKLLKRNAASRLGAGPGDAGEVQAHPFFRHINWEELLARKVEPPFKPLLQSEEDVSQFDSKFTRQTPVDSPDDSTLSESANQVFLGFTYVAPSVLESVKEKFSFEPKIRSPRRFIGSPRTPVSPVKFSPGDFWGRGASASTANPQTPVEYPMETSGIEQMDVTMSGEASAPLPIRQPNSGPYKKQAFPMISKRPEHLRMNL
Procedure: (§1) Cells were washed once with PBS and frozen in RIPA lysis buffer containing protease and phosphatase inhibitors (Sigma-Aldrich) for 30 min. After sonication and centrifugation, the total protein concentration was determined by protein assay using Bio-Rad concentrated dye reagent (Bio-Rad). Equal amounts of protein ([…]) from each sample were separated by SDS-PAGE and electrotransferred to nitrocellulose membranes (GE Healthcare). Detection was performed on the membrane with a 1:1000 dilution of specific primary antibody followed by incubation with a 1:2000 dilution of the HRP conjugated secondary antibody. Finally, immunoreactivity is detected with a chemiluminescent substrate (Clarity Western ECL substrate; Bio-Rad). EGFR (#4267S), MET (#8198S), p-Akt (#9271L), akt (#9272S), p-mTOR (#5536S), mTOR (#2983S), p-p70S6K (#9234S), p70S6K (#2708S), p-S6RP (#4857S), S6RP (#2217S), p-4E-BP1 (#9455S) antibodies. 4E-BP1 (#9644S), p53 (#2527S), p21 waf1/Cip1 (#2947S), survivin (#2808S), cyclin B1 (#12231S), cyclin D3 (#2936S) and GAPDH (#2118S) were purchased from Cell Signaling Technology. Aurora A (#ab13824) and PLK1 (#ab189139) antibodies were from Abcam.

EGFR = assay: Western blot, EGFR protein levels in drug-resistant NSCLC cells; assay type: cell-based; conditions: A549 and H1650 cells, 2 μM, 48 h
Procedure: as §1, with “EGFR (#4267S), MET (#8198S), p-Akt (#9271L), akt (#9272S), p-mTOR (#5536S), mTOR (#2983S), p-p70S6K (#9234S), p70S6K (#2708S), p-S6RP (#4857S), S6RP (#2217S), p-4E-BP1 (#9455S) antibodies. 4E-BP1 (#9644S), p53 (#2527S), p21 waf1/Cip1 (#2947S), survivin (#2808S), cyclin B1 (#12231S), cyclin D3 (#2936S) and GAPDH (#2118S) were purchased from Cell Signaling Technology.” left out

A549 cells [1] = assay: Transwell Matrigel invasion assay; assay type: cell-based; conditions: 1 μM
Procedure: (§2) Cell migration and invasion assays were performed in a transwell chamber (Corning, #3422) with a pore size of 8 μm. Cells were treated with different concentrations of ATA and Erlotinib for 48 h, then harvested and resuspended in a serum-free medium. Cells (1×10^4) were added to the upper side of the transwell chamber and fresh medium containing 10% FBS was added to the lower side. Cells were allowed to migrate from the upper side to the lower side of the chamber at 37° C. for 24 h. Membranes from the cell chamber were fixed with 4% paraformaldehyde for 20 min. The cells remaining on the upper side of the membrane were gently removed with a cotton swab and stained with 1% crystal violet for 20 min to stain the cells migrating to the other side of the transwell chamber. The membrane was then cut and fixed on a glass slide. The migrated cells on each slide were imaged with a Leica M165-FC microscope. For the transwell invasion assay, a Matrigel solution (Corning, #356230) was diluted to one-thirtieth with serum-free medium and applied to the upper side of the precoated chamber for 2 h, after the Matrigel had solidified, the cells were added to the upper side of the transwell chamber. The following procedure is identical to the migration assay. Migrated and invaded cells were quantified using ImageJ software.

H358 cells = assay: MTT cell viability assay, H358 cells; assay type: cell-based; conditions: Homo sapiens, NCI-H358, MTT, 72 h
Procedure: (§3) Cells were seeded at a density of 3×10^3 per well in 96-well plates, allowed to attach overnight, and treated with various concentrations of agent. After 72 h of treatment, 10 μL of MTT solution (5 mg/mL) was added to each well and cultured in the plate for 4 h. The crystallized formazan was dissolved in 100 μL of 10% (w/v) SDS and 0.01 mol/L HCl solution for 24 h, and then the value was read by spectrophotometry at 595 nm using a microplate reader.

H1650 cells [2] = assay: Spheroid formation experiment, H1650 cells; conditions: 2 μM, 0 to 8 days
[3] = system: drug-resistant NSCLC cells (A549, H358, H1975, H1650); assay: MTT assay, summary over all four cell lines; assay type: cell-based; conditions: A549, H358, H1975, H1650; MTT, 72 h; read-out: IC50 values, range over the four cell lines
Procedure: as §3

H1650 cells [4] = assay: MTT cell viability assay, H1650 cells; assay type: cell-based; conditions: Homo sapiens, NCI-H1650, MTT, 72 h
Procedure: as §3

[5] = Body weight, deaths and toxicity in the xenograft study; conditions: 25 mg/kg intraperitoneally every 3 days for 31 days
Procedure: (§4) Cell line xenograft experiments were performed in 6-week-old female nude mice, 4×10^6 A549 cells were mixed 1:1 with matrigel-basement membrane matrix (Corning) and injected subcutaneously into nude mice. Tumors were allowed to grow to around […] and mice were randomly selected to receive treatment with ATA (25 mg/kg) or Erlotinib (25 mg/kg) intraperitoneally every 3 days for 31 days. ATA was formulated with 25% ethanol, 60% PEG300 (Sigma-Aldrich), and 15% Tween 80 (Sigma-Aldrich). Erlotinib was formulated in 5% DMSO, 30% PEG300, 5% Tween 80 and 60% H2O. Mouse body weight and tumor volume were measured every 3 days by a scale and caliper. Tumor volume (mm^3) was calculated using the formula. π/6×length (mm)×[width (mm)]^2. At least 6 mice in the control and treatment groups were evaluated during the study. All mice were sacrificed after 31 days of drug treatment, tumors were collected, and tumor weights were recorded. All animal studies were conducted in accordance with the requirements of the Animal Research Ethics Committee of Macao University and in compliance with all relevant ethical requirements.
(§5) To determine if ATA could also produce the same effect in vivo, this example injected A549 cells subcutaneously into nude mice to form tumor xenografts. Mice were randomly assigned to three groups. When the size of each tumor increased to a volume of approximately 100 mm^3, mice were injected intraperitoneally with vehicle control, ATA (25 mg/kg), or Erlotinib (25 mg/kg) every 3 days for 31 days. The tumor size and body weight of each mouse were measured every 3 days until the end of the animal experiment on day 31.

H1975 cells [6] = assay: Spheroid formation experiment, H1975 cells; assay type: cell-based; conditions: 2 μM, 0 to 8 days
Excerpt: The density of H1975 was 500 cells per well and the density of H1650 was 1000 cells per well in an ultra-low adhesion round bottom 96 well plate (Corning, #7007).

[7] = system: A549 cell-derived xenograft tumors; assay: Mouse xenograft study; assay type: in vivo, nude mice; conditions: 25 mg/kg intraperitoneally every 3 days, day 31
Procedure: as §4, §5

H1975 cells [8] = assay: MTT cell viability assay, H1975 cells; assay type: cell-based; conditions: Homo sapiens, NCI-H1975, MTT, 72 h
Procedure: as §3

A549 cells [9] = assay: Transwell cell migration assay; assay type: cell-based; conditions: 1 μM
Procedure: as §2

A549 cells [10] = assay: MTT cell viability assay, A549 cells; assay type: cell-based; conditions: Homo sapiens, MTT, 72 h
Procedure: as §3

Row | Compound | reduction (inhibition ratio) of protein synthesis (A549 and H1650 cells) | levels of p70S6K (p70S6K) | protein levels of EGFR (EGFR) | reduction of invasion ability (A549 cells [1]) | IC50 (H358 cells) | spheroid growth / sphere size (H1650 cells [2]) | IC50 [3] | IC50 (H1650 cells [4]) | deaths during the treatment period [5] | weight of nude mice compared between groups [5] | spheroid growth / sphere size (H1975 cells [6]) | reduction of tumor size compared to the control group [7] | reduction of tumor weight [7] | IC50 (H1975 cells [8]) | reduction of migration ability (A549 cells [9]) | IC50 (A549 cells [10])
1 | CO[C@H]1C[C@@H]2CC[C@@H](C)[C@@](O)(O2)C(=O)C(=O)N2CCCC[C@H]2C(=O)O[C@H]([C@H](C)C[C@@H]2CC[C@@H](O)[C@H](OC)C2)CC(=O)[C@H](C)/C=C(\C)[C@@H](O)[C@@H](OC)C(=O)[C@H](C)C[C@H](C)/C=C/C=C/C=C/1C [Rapamycin, rapamycin] | 25-28% | – | – | – | – | – | – | – | – | – | – | – | – | – | – | –
2 | CCc1cncnc1N1CCN(Cc2nc3ccc(C(F)(F)F)cc3[nH]2)CC1 [PF-4708671, reference compound] | did not affect | did not decrease | – | – | – | – | – | – | – | – | – | – | – | – | – | –
3 | C#Cc1cccc(Nc2ncnc3cc(OCCOC)c(OCCOC)cc23)c1 [Erlotinib, reference compound] | – | – | significantly increased | did not | 21.5 ± 1.47 µM | less inhibition in H1650 cells than ATA | 10 to 22 µM | 22.1 ± 0.59 µM | no mice died | no difference | did not decrease but significantly increased | 32.5% | did not significantly reduce | 10.6 ± 1.27 µM | did not | 19.6 ± 0.28 µM
